# Data taken from patent US20200121604A1, “SOLID FOSMETPANTOTENATE FORMULATIONS” (Retrophin, Inc., priority 2017, published 2020).
# What was measured:
# [1] = system: wild-type and PanK2-deficient IRM32 cells; experiment: Half-life of Coenzyme A in cells treated with labeled fosmetpantotenate or pantothenic acid; format: cell-based
# Description: The half-life of Coenzyme A (CoA) was determined for both wild-type and PanK2-deficient IRM32 cells.
# Stable isotopically labeled pantothenic acid (vitamin B5) and fosmetpantotenate, a compound currently in a Phase 3 clinical trial for the treatment of […], were prepared. The PanK2-deficient cell line was treated with labeled fosmetpantotenate (100 μM) while the parental IRM32 (WT) line was treated with labeled pantothenic acid. After 24 h the media was changed to complete media and the cells were harvested at various time points. The fraction of labeled CoA, both free and total, with respect to time 0 was calculated to determine the half-life of CoA under each of these conditions.
# [2] = Chemical stability of fosmetpantotenate with and without acetic acid, alone and with MCC, 30° C./65% RH, reverse-phase HPLC; format: physicochemical; details: weight percent; for Phenol (%): main degradant
# Description: Fosmetpantotenate was prepared and purified as in Examples 1 (“with acetic acid”) and Example 28 (“without acid”). Flowability and stability were analyzed for the acetic acid-containing fosmetpantotenate and the “without acid” fosmetpantotenate, alone and when formulated with MCC.
# For the MCC formulations, fosmetpantotenate was diluted 1:1 (w:w) with ethyl acetate (HPLC grade, EMD) to generate a solution of viscosity suitable for wet granulation. Porous MCC (Avicel® PH200) was sieved via 120 mesh (125 μm opening) to remove fine particles and then placed in a Freund-Vector GMX-LAB Micro high shear granulator (1 L stainless steel bowl). The impeller speed was kept at 125 rpm during the process. 40 g of 50 wt % fosmetpantotenate ethyl acetate solution (contains 20 g fosmetpantotenate) was added into 80 g substrate at approximately 8 g/min drop-wise via a glass transfer pipette to achieve a 20:80 fosmetpantotenate:MCC ratio (i.e., 20% drug loading by weight). The resulting materials were agitated for an additional 10 minutes followed by tray drying overnight at room temperature to facilitate removal of ethyl acetate.
# For the stability analysis, samples of fosmetpantotenate were subdivided and transferred into separate 20 mL clear scintillation vials (about 1 g sample per vial). Closed vials were then placed individually into 5″×7″ foil pouches (CADPAK N-HD, WVTR 0.0005 g/100 in^2/day at 90% RH 40° C.). followed by heat sealing the pouches without desiccant inside. Fosmetpantotenate powder samples were weighed (3 g) and placed directly into the same foil pouches described above, and heat sealed without desiccant inside. Closed samples were stored at 30° C./65% RH and measured after 0, 2, 4, and 8 weeks.
# Measurement of impurities was performed by reverse-phase HPLC, utilizing the methods in Table 10. Water:acetonitrile 95:5 (v:v) with 0.005% phosphoric acid was used to extract the API (fosmetpantotenate) from the granulation at concentration of 0.75 mg/mL on an active basis. The sample suspension was ultrasonicated for 10 minutes to ensure complete API extraction followed by filtration using 0.45 μm PTFE filters to remove insoluble materials (i.e., MCC in the granulation samples). The filtrates were then transferred to individual vials and analyzed by HPLC.
# [3] = reference substances; cited from earlier work
# [4] = Chemical stability of formulations, 30° C. and 65% relative humidity, closed containers, 12 weeks, total impurities by HPLC; format: physicochemical
# Description: A stability study was performed to assess the stability of fosmetpantotenate in the following formulations: 1 g fosmetpantotenate (“drug only”; containing approximately 10% acetic acid); 75 mg fosmetpantotenate EA capsules (10% ethyl acetate); 75 mg fosmetpantotenate LG-90 capsules (38% laurylglycol 90); fosmetpantotenate MCC granulation, as described in Example 2; and fosmetpantotenate mannitol granulation, as described in Example 3; and 25:75 fosmetpantotenate:HPMCAS-L Spray Dried Dispersion (SDD) granulation, as described in Example 24. Additionally, fosmetpantotenate without solid excipient or solvent (“drug only”) was stored closed in borosilicate glass vials. Formulations contained in soft gel capsules were stored in closed HDPE bottles, and solid fosmetpantotentate granulation formulations were stored in closed foil-foil packaging. Stability samples were stored at ca. −20° C. (control samples) and at 30° C. and 65% relative humidity in closed containers for 12 weeks.
# The amount of total impurities was determined via integration of HPLC peak areas within 3 days after the formulations were prepared and before beginning storage (time=0 weeks). The amount of total impurities was measured again after 2 weeks, 4 weeks, 6 weeks, 8 weeks, and 12 weeks of storage. […]
# [5] = Accelerated stability of 10% drug loaded formulations, 25° C./60% RH, total related substances by HPLC; format: physicochemical; details: 10% drug loading
# Description: Fosmetpantotenate was thinned with ethyl acetate (EtOAc) at a 1:1 weight/weight ratio, and then blended with each solid excipient using a mortar and pestle on the 0.1 g scale of fosmetpantotenate, i.e., 0.2 g 50% (fosmetpantotenate/EtOAc)+0.9 g solid. The resulting materials were dried overnight at room temperature in a HEPA hood to remove excess EtOAc.
# The formulations were stored under accelerated stability conditions (25° C./60% relative humidity (RH)) for 4 weeks. Some samples were stored in “open” conditions, i.e., exposed to air; other samples were stored in closed containers. The amount of impurities was measured at beginning of storage (t=0), after 2 weeks of storage (t=2 weeks), and after 4 weeks of storage (t=4 weeks). The amount of impurities (total related substances, expressed as a percentage) was determined using the methods described in Example 26 below.
# The amount of total impurities was determined via integration of HPLC peak areas within 3 days after the formulations were prepared and before beginning storage (time=0 weeks). The amount of total impurities was measured again after 2 weeks, 4 weeks, 6 weeks, 8 weeks, and 12 weeks of storage. Capsule samples for analysis were prepared by dissolving 5 capsules in a volumetric flask with H2O/ACN 50/50 (v/v) containing 0.1% (v/v) HCOOH. “Drug only” and granulation samples were prepared by adding the sample directly into a volumetric flask and diluting with H2O/ACN 50/50.
smiles,measurement,setting,value
"CC(C)(COP(=O)(O)OP(=O)(O)OC[C@H]1O[C@@H](n2cnc3c(N)ncnc32)[C@H](O)[C@@H]1OP(=O)(O)O)[C@@H](O)C(=O)NCCC(=O)NCCS [CoA, Coenzyme A]","half-life of CoA, PanK2-deficient versus WT cells",[1],somewhat shorter in PanK2-deficient cells than in WT cells
"COC(=O)CCNC(=O)[C@H](O)C(C)(C)COP(=O)(N[C@@H](C)C(=O)OC)Oc1ccccc1 (some centres unmarked) [Fosmetpantotenate, no acid]",Phenol (%),"[2]; 30° C./65% RH closed, t = 2 wk",0.20%
same,Phenol (%),"[2]; 30° C./65% RH closed, t = 4 wk",0.42%
same,Phenol (%),"[2]; 30° C./65% RH closed, t = 8 wk",1.62%
same,Phenol (%),[2]; t = 0,0.12%
same,"Impurities, excluding phenol (%)","[2]; 30° C./65% RH closed, t = 2 wk",3.69%
same,Total impurities (%),"[2]; 30° C./65% RH closed, t = 2 wk",4.44%
same,"Impurities, excluding phenol (%)","[2]; 30° C./65% RH closed, t = 4 wk",7.01%
same,Total impurities (%),"[2]; 30° C./65% RH closed, t = 4 wk",8.54%
same,"Impurities, excluding phenol (%)","[2]; 30° C./65% RH closed, t = 8 wk",12.82%
same,Total impurities (%),"[2]; 30° C./65% RH closed, t = 8 wk",17.73%
same,"Impurities, excluding phenol (%)",[2]; t = 0,2.28%
same,Total impurities (%),[2]; t = 0,2.75%
O [Water],Viscosity (Cp),[3],1 Cp
"COC(=O)CCNC(=O)[C@H](O)C(C)(C)COP(=O)(N[C@@H](C)C(=O)OC)Oc1ccccc1 (stereo partly drawn) [fosmetpantotenate, methyl 3-((2R)-2-hydroxy-4-(((((S)-1-methoxy-1-oxopropan-2-yl)amino)(phenoxy)phosphoryl)oxy)-3,3-dimethylbutanamido)propanoate]",average amount of degradation per week,[4],2.6%
same,Total % Related Substances,"[5]; 25° C./60% RH, t = 2 weeks, Closed",5.76%
same,Total % Related Substances,"[5]; 25° C./60% RH, t = 2 weeks, Open",5.94%
same,Total % Related Substances,"[5]; 25° C./60% RH, t = 4 weeks, Closed",6.39%
same,Total % Related Substances,"[5]; 25° C./60% RH, t = 4 weeks, Open",6.29%
same,Total % Related Substances,[5]; t = 0,4.80%
